From patent US4146719A, “Piperazinyl derivatives of quinoline carboxylic acids” (priority 1977, dated 1979)
Values after ≈ are worked out from the molar mass of the structure shown. Like-named read-outs stand apart in the source and are kept apart here.

Key:
[1] = test system: Staphylococcus aureus 209P; assay: Antibacterial activity in vitro, M.I.C., agar dilution streak method; type: cell-based; details: Staphylococcus aureus, 209P
[2] = test system: Mycobacterium phlei IFO 3142; assay: as above; type: cell-based; details: Mycolicibacterium phlei, IFO3142
[3] = test system: Streptococcus pyogenes IID 692; assay: as above; type: cell-based; details: Streptococcus pyogenes, IID692
[4] = test system: Str. faecalis IID 682; assay: as above; type: cell-based; details: Enterococcus faecalis, IID682; Gram +
[5] = test system: Neisseria perflava IID 856; assay: as above; type: cell-based; details: Neisseria perflava, IID856
[6] = test system: E. coli ATCC 10536; assay: as above; type: cell-based, Escherichia coli; details: Escherichia coli, ATCC10536
[7] = test system: Corynebacterium pyogenes IID 548; assay: as above; type: cell-based; details: Corynebacterium pyogenes, IID548; Gram +
[8] = test system: Pseudomonas aeruginosa V-1; assay: as above; type: cell-based; details: Pseudomonas aeruginosa, V1
[9] = test system: Pseudomonas aeruginosa IID 1210; assay: Preventive effect against systemic infection with Pseudomonas aeruginosa in mice; type: in vivo, Pseudomonas aeruginosa; mice (ddY, male); details: Pseudomonas aeruginosa, subcutaneous, challenge 3.5 × 10^4 cells/mouse
Experimental: Systemic infection was produced by inoculating male mice (strain: ddY, 6 weeks old, body weight: 28-33g) in intraperitoneally with Pseudomonas aeruginosa IID 1210 suspended in 0.5 ml of Brain heart infusion broth (Eiken) containing 5% mucin. […] Each of these test materials was administered to the mice twice, immediately after and then 6 hours after the inoculation, and the therapeutic effect of each compounds was judged from the survival rate.
(1) Miller L. C. and M. L. Tainter: Estimation of the ED50 and its error by means of logarithmic-probit graph paper Proc. Soc. Exp. Biol. Med. 57 261-264 (1944)
(2) Litchfield J. T. and F. Wilcoxon: A simplified method of evaluating dose - effect J. Pharmacol. 92 99-113 (1948)

[10] = test system: Sta. aureus ATCC 14775; assay: Antibacterial activity in vitro, M.I.C., agar dilution streak method; type: cell-based, Staphylococcus aureus; details: Staphylococcus aureus, ATCC14775
[11] = test system: Escherichia coli NIHJ; assay: as above; type: cell-based; details: Escherichia coli
[12] = test system: Ps. aeruginosa IID 1210; assay: as above; type: cell-based, Pseudomonas aeruginosa; details: Pseudomonas aeruginosa, IID1210
[13] = test system: Bacillus subtilis PCI 219; assay: as above; type: cell-based; details: Bacillus subtilis, PCI219
[14] = test system: Proteus vulgaris IFO 3167; assay: as above; type: cell-based; details: Proteus vulgaris, IFO3167
[15] = test system: Str. pyogenes S-8; assay: as above; type: cell-based, Streptococcus pyogenes; details: Streptococcus pyogenes, S8
[16] = test system: My. smegmatis IFO 3083; assay: as above; type: cell-based; details: Mycolicibacterium smegmatis, IFO3083
[17] = test system: Diplococcus pneumoniae IID 552; assay: as above; type: cell-based; details: Streptococcus pneumoniae, IID552
[18] = test system: Pr. vulgaris XK Denken; assay: as above; type: cell-based, Proteus vulgaris; details: Proteus vulgaris
[19] = test system: Haemophilus influenzae IID 986; assay: as above; type: cell-based; details: Haemophilus influenzae, IID986
[20] = test system: Klebsiella pneumoniae IFO 3512; assay: as above; type: cell-based; details: Klebsiella pneumoniae, IFO3512
[21] = test system: Ps. aeruginosa IID 1130; assay: as above; type: cell-based, Pseudomonas aeruginosa; details: Pseudomonas aeruginosa, IID1130
[22] = test system: Salmonella enteritidis IID 604; assay: as above; type: cell-based; details: Salmonella enterica
[23] = test system: Shigella sonnei IID 969; assay: as above; type: cell-based; details: Shigella sonnei, IID969; Gram -
[24] = test system: Ps. aeruginosa IFO 12689; assay: as above; type: cell-based, Pseudomonas aeruginosa; details: Pseudomonas aeruginosa, IFO12689
[25] = test system: gram-positive and gram-negative bacteria including Pseudomonas aeruginosa; assay: Antibacterial spectrum in vitro (summary in words); type: cell-based
[26] = Biliary excretion in rats after a single oral administration of 50 mg/kg; details: in vivo, rat, 50 mg/kg oral
[27] = test system: Escherichia coli NIHJ JC-2; assay: Influence of rat bile on antibacterial activity; type: cell-based; details: bile of rats
Experimental: Nutrient agar was heated and melted. […] The diameter of the inhibition zone was measured.

[28] = test system: Escherichia coli; assay: Concentration ratio in serum to M.I.C. after oral administration of 50 mg/kg in rats; type: in vivo, Escherichia coli; rats; details: rat, 50 mg/kg oral
[29] = test system: Escherichia coli NIHJ JC-2; assay: Preventive effect against ascending kidney infection in mice with Escherichia coli; type: in vivo, Escherichia coli; mice (ddY, female); details: Escherichia coli
Experimental: Ascending kidney infection was induced in female mice (strain: ddY, 6 weeks old, body weight: 22-26g), by instilling Escherlichia coli NIHJ JC-2 suspended in 0.04 ml of Tryptosoya broth (Nissan) into the urinary tract of mice anesthetized with sodium pentobarbital and by holding for 6 hours the mice in plastic tubes (diameter 25 mm) and clamping the outlet of urinary tract.
Each of these test material was orally administered 3 hours after inoculation. Mice were sacrificed 48 hours after inoculation. Kidneys were removed aseptically and bisected, and the two halves were pressed and streaked on agar plate containing Desoxycholate medium (Nissan). The therapeutic effect of each compound was evaluated from the absence of growth on the agar surface after 20 hours of incubation at 37° C.

[30] = Chem. Abstr., 62, 15600h (1965); cited from earlier work
[31] = Chelate formation with ferric ion; type: physicochemical; details: one third molar equivalent of ferric chloride hexahydrate, water
Source text: It is known that most of drugs such as Quinoform and Ethambutol which form chelates with metal ions in vivo produce undesirable side effects.

CC1(C)S[C@@H]2[C@H](NC(=O)C(C(=O)O)c3ccccc3)C(=O)N2[C@H]1C(=O)O (some centres unmarked) [Carbenicillin]
MIC ([1]; Gram +, read-out: M.I.C.): 0.39 µg/mL (≈ 1.03 µM) | MIC ([2]; Gram +, read-out: M.I.C.): > 200 µg/mL | MIC ([3]; Gram +, read-out: M.I.C.): 0.1 µg/mL (≈ 0.264 µM) | MIC [4]: 100 µg/mL | MIC [5]: 1.56 µg/mL (≈ 4.12 µM) | MIC [6]: 1.56 µg/mL (≈ 4.12 µM) | MIC [7]: 0.2 µg/mL | MIC ([8]; Gram -, read-out: M.I.C.): 12.5 µg/mL (≈ 33 µM) | ED50 ([9]; IID1210, sc, twice (immediately and 6 hours after inoculation), read-out: ED50 (95% confidence limit)): 800 mg/kg | ED90 ([9]; IID1210, twice, read-out: ED90): 1430 mg/kg | MIC ([10]; Gram +, read-out: M.I.C.): 6.25 µg/mL (≈ 16.5 µM) | MIC [11]: 1.56 µg/mL (≈ 4.12 µM) | MIC ([12]; Gram -, read-out: M.I.C.): 100 µg/mL (≈ 264 µM) | MIC ([13]; Gram +, read-out: M.I.C.): 0.39 µg/mL (≈ 1.03 µM) | MIC ([14]; Gram -, read-out: M.I.C.): 6.25 µg/mL (≈ 16.5 µM) | MIC ([15]; Gram +, read-out: M.I.C.): 0.1 µg/mL (≈ 0.264 µM) | MIC ([16]; Gram +, read-out: M.I.C.): 6.25 µg/mL (≈ 16.5 µM) | MIC ([17]; Gram +, read-out: M.I.C.): 0.39 µg/mL (≈ 1.03 µM) | MIC ([18]; Gram -, read-out: M.I.C.): 0.39 µg/mL (≈ 1.03 µM) | MIC ([19]; Gram -, read-out: M.I.C.): 0.39 µg/mL (≈ 1.03 µM) | MIC ([20]; Gram -, read-out: M.I.C.): > 200 µg/mL | MIC ([21]; Gram -, read-out: M.I.C.): 200 µg/mL (≈ 529 µM) | MIC ([22]; Gram -, read-out: M.I.C.): 12.5 µg/mL (≈ 33 µM) | MIC [23]: 1.56 µg/mL (≈ 4.12 µM) | MIC ([24]; Gram -, read-out: M.I.C.): 100 µg/mL (≈ 264 µM)

CCn1cc(C(=O)O)c(=O)c2ccc(C)nc21 [Nalidixic acid]
MIC [1]: 100 µg/mL (≈ 431 µM) | MIC [2]: 100 µg/mL (≈ 431 µM) | antibacterial activity (in words) [25]: inactive on many strains of gram-positive bacteria and many Pseudomonas aeruginosa strains | MIC [3]: > 100 µg/mL | dose excreted at 3 h ([26]; 0-3 hours, mean ±S.E., read-out: Biliary excretion, cumulative recovery): 0.29 ± 0.03% | concentration at 3 h ([26]; 0-3 hrs., mean±S.E., read-out: Biliary level): 14700 ± 1500 ng/mL | dose excreted at 6 h ([26]; 0-6 hours, mean ±S.E., read-out: Biliary excretion, cumulative recovery): 0.56 ± 0.05% | dose excreted at 24 h ([26]; 0-24 hours, mean ±S.E., read-out: Biliary excretion, cumulative recovery): 1.33 ± 0.1% | dose excreted at 27 h ([26]; 0-27 hours, mean ±S.E., read-out: Biliary excretion, cumulative recovery): 1.33 ± 0.1% | concentration at 6 h ([26]; 3-6 hrs., mean±S.E., read-out: Biliary level): 16600 ± 2400 ng/mL | concentration at 24 h ([26]; 6-24 hrs., mean±S.E., read-out: Biliary level): 9300 ± 1600 ng/mL | concentration at 27 h ([26]; 24-27 hrs., read-out: Biliary level (not detected symbol)): < 2000 ng/mL | MIC [5]: 1.56 µg/mL (≈ 6.72 µM) | MIC [6]: 3.13 µg/mL (≈ 13.5 µM) | antibacterial activity in presence of bile (in words) [27]: not influenced by bile of rats | MIC [8]: 100 µg/mL (≈ 431 µM) | MIC [10]: > 100 µg/mL | serum concentration / M.I.C. ratio (in words) [28]: smaller than that of the compound (II) | MIC [11]: 3.13 µg/mL (≈ 13.5 µM) | MIC [12]: > 200 µg/mL | MIC [13]: 6.25 µg/mL (≈ 26.9 µM) | MIC [14]: 3.13 µg/mL (≈ 13.5 µM) | MIC [15]: > 100 µg/mL | MIC [16]: > 100 µg/mL | ED90 ([29]; NIHJJC2, 48 h): 345 mg/kg | ED50 ([29]; NIHJJC2, po, 48 h, read-out: ED50 (95% confidence limit)): 86 mg/kg | chelate compound with ferric ion [30]: afforded chelate compound when treated with ferric ion | shift of absorption maxima on treatment with ferric ion ([31]; from 256 and 326 nm, NaOH): shifted to shorter wave length at 248 and 311 nm | chelate compound with ferric ion ([31]; molar equivalent of sodium hydroxide): 3:1 chelate compound of nalidixic acid and ferric ion was obtained | MIC [17]: > 100 µg/mL | MIC [18]: 3.13 µg/mL (≈ 13.5 µM) | MIC [19]: 1.56 µg/mL (≈ 6.72 µM) | MIC [20]: 1.56 µg/mL (≈ 6.72 µM) | MIC [21]: > 200 µg/mL | MIC [22]: 12.5 µg/mL (≈ 53.8 µM) | MIC [23]: 1.56 µg/mL (≈ 6.72 µM) | MIC [24]: > 200 µg/mL
